The numbers were not newly measured in patent US8815262B2, “Pharmaceutical composition and preparation for oral administration” (FUJIFILM Corporation, priority 2010, dated 2014), which cites them from elsewhere.

For this series the following is noted: oral administration.

Usually bioavailability stands for dose-corrected exposure relative to a reference, in per cent. As to `CC(=O)O[C@H]1C(=O)[C@@]2(C)[C@H]([C@H](OC(=O)c3ccccc3)[C@]3(O)C[C@H](OC(=O)[C@H](O)[C@@H](NC(=O)c4ccccc4)c4ccccc4)C(C)=C1C3(C)C)[C@]1(OC(C)=O)CO[C@@H]1C[C@@H]2O` [paclitaxel], the bioavailability was not above 4%.
